Measurements reported in ChEMBL document CHEMBL4190187, “Discovery of pyrazolopyrimidine derivatives as novel inhibitors of ataxia telangiectasia and rad3 related protein (ATR)” (Bioorg Med Chem Lett, 2017).

Experiments:
[1] = target: PI3-kinase p110-alpha/p85-alpha (Homo sapiens) (UniProt P27986+P42336); test: Inhibition of recombinant full-length human p110a/p85a at 1 uM using phosphatidylinositol 4,5-bisphosphate as substrate after 40 mins in presence of [gamma-33P]ATP by scintillation counting method; type: protein-complex assay
[2] = target: Protein kinase C eta type (Homo sapiens) (UniProt P24723); test: Inhibition of recombinant human PKCeta (2 to end residues) at 1 uM using ERMRPRKRQGSVRRRV as substrate after 40 mins in presence of [gamma-33P]ATP by scintillation counting method
[3] = target: Tyrosine-protein kinase Fgr (Homo sapiens) (UniProt P09769); test: Inhibition of recombinant human FGR (2 to end residues) at 1 uM using poly(Glu,Tyr) 4:1 as substrate after 40 mins in presence of [gamma-33P]ATP by scintillation counting method
[4] = target: RAF proto-oncogene serine/threonine-protein kinase (Homo sapiens) (UniProt P04049); test: Inhibition of recombinant human c-RAF (306 to end residues) at 1 uM using inactive MEK1 as substrate after 40 mins in presence of [gamma-33P]ATP by scintillation counting method
[5] = target: Serine/threonine-protein kinase/endoribonuclease IRE1 (Homo sapiens) (UniProt O75460); test: Inhibition of recombinant human IRE1 (465 to end residues) at 1 uM using myelin basic protein as substrate after 40 mins in presence of [gamma-33P]ATP by scintillation counting method
[6] = target: Insulin-like growth factor 1 receptor (Homo sapiens) (UniProt P08069); test: Inhibition of recombinant human IGF-1R (959 to end residues) at 1 uM using KKKSPGEYVNIEFG as substrate after 40 mins in presence of [gamma-33P]ATP by scintillation counting method
[7] = target: Myosin light chain kinase 2, skeletal/cardiac muscle (Homo sapiens) (UniProt Q9H1R3); test: Inhibition of full-length recombinant human MYLK2 at 1 uM using KKLNRTLSFAEPG as substrate after 40 mins in presence of [gamma-33P]ATP by scintillation counting method
Chain of Myosin light chain kinase 2, skeletal/cardiac muscle (Homo sapiens) (Q9H1R3 whole entry): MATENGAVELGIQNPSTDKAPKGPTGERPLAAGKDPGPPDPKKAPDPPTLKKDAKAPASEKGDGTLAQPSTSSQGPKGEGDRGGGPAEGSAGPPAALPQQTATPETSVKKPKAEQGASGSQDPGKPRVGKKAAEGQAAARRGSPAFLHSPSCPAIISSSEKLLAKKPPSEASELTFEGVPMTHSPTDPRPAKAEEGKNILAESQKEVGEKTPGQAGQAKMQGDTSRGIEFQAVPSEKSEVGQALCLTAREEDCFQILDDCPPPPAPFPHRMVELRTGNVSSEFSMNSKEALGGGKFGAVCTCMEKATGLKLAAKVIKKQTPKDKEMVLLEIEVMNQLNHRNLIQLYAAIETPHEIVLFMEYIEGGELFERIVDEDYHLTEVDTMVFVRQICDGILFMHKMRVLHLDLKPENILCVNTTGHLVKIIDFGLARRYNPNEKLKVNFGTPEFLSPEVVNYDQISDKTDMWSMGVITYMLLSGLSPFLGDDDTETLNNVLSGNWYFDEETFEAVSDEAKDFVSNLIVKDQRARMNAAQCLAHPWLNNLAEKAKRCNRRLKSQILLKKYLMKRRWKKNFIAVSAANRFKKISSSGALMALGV

Chain of Serine/threonine-protein kinase/endoribonuclease IRE1 (Homo sapiens) (O75460 19-977 limits assumed): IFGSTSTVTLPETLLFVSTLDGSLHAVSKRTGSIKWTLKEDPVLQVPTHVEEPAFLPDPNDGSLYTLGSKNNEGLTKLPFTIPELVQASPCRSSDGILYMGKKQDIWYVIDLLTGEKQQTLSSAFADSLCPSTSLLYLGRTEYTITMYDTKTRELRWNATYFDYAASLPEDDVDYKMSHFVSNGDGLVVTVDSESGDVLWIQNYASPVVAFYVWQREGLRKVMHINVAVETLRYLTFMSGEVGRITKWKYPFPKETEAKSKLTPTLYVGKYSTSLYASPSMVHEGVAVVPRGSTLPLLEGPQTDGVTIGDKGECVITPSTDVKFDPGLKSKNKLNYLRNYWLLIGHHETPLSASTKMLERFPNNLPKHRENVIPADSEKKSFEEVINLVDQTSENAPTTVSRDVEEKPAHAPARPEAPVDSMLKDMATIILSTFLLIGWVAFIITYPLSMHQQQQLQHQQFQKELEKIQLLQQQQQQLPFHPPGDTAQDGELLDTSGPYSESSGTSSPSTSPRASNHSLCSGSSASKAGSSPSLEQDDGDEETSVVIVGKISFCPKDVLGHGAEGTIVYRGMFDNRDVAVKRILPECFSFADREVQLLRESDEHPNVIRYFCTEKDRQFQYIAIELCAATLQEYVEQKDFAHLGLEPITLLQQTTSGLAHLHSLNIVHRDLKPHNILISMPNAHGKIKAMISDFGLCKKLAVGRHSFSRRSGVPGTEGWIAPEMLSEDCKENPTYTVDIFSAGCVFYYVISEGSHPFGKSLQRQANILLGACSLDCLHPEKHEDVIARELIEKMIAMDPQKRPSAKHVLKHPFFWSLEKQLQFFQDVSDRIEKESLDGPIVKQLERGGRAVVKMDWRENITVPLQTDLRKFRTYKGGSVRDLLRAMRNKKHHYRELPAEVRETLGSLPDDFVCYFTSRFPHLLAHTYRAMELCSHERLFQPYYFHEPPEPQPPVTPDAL
Chain of Protein kinase C eta type (Homo sapiens) (P24723 whole entry): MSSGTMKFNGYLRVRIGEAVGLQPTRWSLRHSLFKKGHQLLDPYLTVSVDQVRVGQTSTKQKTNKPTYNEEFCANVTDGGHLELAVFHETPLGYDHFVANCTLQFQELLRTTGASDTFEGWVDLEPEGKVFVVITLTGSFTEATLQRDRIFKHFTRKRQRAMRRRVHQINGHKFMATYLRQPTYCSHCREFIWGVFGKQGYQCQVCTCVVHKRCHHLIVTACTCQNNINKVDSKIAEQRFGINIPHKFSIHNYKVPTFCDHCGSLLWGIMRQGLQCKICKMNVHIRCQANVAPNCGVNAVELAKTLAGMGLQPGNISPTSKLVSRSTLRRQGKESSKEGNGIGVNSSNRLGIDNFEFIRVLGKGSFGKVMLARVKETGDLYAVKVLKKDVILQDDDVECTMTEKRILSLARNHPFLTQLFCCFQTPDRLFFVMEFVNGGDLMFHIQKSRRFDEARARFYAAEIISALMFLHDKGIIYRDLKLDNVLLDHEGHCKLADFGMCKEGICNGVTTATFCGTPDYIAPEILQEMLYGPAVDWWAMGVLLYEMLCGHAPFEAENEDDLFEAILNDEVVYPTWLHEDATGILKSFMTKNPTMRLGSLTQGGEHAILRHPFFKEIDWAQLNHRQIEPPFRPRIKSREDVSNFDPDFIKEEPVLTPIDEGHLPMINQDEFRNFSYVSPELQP
Chain of Tyrosine-protein kinase Fgr (Homo sapiens) (P09769 2-529 limits assumed): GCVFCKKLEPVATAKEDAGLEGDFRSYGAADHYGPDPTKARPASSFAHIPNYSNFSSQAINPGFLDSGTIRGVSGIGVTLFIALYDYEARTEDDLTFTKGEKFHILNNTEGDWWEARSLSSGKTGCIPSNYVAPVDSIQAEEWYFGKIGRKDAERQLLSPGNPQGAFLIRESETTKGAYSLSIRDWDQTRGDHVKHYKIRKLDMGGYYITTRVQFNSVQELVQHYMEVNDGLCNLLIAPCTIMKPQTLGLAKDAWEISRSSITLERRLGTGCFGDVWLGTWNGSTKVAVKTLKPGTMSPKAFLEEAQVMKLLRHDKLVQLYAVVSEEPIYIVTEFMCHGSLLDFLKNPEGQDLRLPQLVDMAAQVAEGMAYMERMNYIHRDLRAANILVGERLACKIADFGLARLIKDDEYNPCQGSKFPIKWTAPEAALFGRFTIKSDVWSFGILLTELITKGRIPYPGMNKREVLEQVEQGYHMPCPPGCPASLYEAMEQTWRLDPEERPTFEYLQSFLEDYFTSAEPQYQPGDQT
Chain of Insulin-like growth factor 1 receptor (Homo sapiens) (P08069 31-736 limits assumed): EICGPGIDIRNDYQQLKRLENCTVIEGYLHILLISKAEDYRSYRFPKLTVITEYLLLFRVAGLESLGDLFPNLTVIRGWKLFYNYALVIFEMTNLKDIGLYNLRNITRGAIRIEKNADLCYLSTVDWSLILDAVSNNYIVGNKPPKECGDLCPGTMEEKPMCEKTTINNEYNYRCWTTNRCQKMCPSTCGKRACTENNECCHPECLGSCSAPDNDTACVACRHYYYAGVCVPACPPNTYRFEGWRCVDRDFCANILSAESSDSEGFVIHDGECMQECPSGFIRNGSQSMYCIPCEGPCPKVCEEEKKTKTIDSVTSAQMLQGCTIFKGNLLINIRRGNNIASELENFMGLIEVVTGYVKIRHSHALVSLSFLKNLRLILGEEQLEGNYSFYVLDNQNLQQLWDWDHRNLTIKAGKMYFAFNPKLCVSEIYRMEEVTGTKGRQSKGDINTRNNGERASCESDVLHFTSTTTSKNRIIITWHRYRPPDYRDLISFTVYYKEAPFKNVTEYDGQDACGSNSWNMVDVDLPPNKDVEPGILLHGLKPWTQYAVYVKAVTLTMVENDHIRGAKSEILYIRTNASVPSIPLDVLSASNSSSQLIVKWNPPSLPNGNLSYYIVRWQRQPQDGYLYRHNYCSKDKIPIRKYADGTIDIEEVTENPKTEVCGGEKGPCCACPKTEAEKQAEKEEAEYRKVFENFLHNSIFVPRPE
Chain of Insulin-like growth factor 1 receptor (Homo sapiens) (P08069 741-1367 limits assumed): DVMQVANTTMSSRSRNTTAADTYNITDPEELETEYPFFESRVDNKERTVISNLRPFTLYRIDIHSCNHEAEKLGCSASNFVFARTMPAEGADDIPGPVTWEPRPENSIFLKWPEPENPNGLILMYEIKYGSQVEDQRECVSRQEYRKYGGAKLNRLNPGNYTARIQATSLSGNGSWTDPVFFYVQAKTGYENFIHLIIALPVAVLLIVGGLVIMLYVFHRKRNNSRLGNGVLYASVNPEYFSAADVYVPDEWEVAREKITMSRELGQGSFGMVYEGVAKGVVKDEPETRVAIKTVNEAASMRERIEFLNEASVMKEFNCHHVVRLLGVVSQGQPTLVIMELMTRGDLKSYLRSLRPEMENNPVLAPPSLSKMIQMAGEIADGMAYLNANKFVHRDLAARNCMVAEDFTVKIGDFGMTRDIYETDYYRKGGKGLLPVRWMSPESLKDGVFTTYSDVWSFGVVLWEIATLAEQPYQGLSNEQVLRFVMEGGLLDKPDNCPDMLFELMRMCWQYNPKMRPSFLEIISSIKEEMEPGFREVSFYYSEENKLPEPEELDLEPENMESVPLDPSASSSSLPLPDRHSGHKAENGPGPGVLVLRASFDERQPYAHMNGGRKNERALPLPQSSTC
Chain of RAF proto-oncogene serine/threonine-protein kinase (Homo sapiens) (P04049 whole entry): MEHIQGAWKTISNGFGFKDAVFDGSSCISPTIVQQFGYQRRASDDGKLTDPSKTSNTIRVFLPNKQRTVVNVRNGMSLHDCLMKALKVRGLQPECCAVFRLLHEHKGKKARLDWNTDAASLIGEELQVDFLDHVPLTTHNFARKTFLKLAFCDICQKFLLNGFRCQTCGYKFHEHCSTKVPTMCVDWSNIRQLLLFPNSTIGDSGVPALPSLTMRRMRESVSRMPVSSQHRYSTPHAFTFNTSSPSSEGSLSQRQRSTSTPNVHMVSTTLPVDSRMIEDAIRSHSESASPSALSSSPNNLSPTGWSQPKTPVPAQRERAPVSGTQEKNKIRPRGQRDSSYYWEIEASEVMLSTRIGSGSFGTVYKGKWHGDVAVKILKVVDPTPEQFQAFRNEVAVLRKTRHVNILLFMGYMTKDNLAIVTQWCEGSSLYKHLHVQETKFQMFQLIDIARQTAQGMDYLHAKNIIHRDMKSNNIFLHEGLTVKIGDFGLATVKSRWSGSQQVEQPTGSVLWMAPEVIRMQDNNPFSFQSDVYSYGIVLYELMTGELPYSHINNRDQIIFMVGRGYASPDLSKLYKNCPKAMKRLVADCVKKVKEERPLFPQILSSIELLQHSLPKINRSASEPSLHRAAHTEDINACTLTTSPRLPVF

Structure (SMILES): CS(=O)(=O)c1ccc(-n2nc(-c3cnc4[nH]ccc4c3)c3c(N)ncnc32)cc1
- inhibition [1]: 6%
- inhibition [2]: 6%
- inhibition [3]: 69%
- inhibition [4]: -1%
- inhibition [5]: 2%
- inhibition [6]: -2%
- inhibition [7]: 18%
